According to patent US20250179057A1, “MEK IMMUNE ONCOLOGY INHIBITORS AND THERAPEUTIC USES THEREOF” (Immuneering Corporation, priority 2022, published 2025):
Where “and” joins values, the source holds several entries; their conditions need not be identical. Equal entries are not always repeated.

Columns and labels:
[1] = test system: phospho-ERK in A549 (KRAS G12S) cells; assay: Cell-based pERK (pERK:tERK) in A549 cells; set-up: A549-pERK 10 uM, 2 h: unit not given here; conditions: for activity at 0.01 µM: Homo sapiens, A549, 2 h, read-out: A549-pERK (10 nM, 2 h); for A549-pERK (10 nM, 2 h): phospho- to total protein ratio normalized to DMSO control (Table 9)
Method: Media components, reagents and buffers for Western Blot: All cell culture media components were obtained from ThermoFisher Scientific. […] Laemmli sample loading 4× buffer (ThermoFisher Scientific, Cat No. NP0007). MOPS/SDS electrophoresis running buffer (GenScript, Cat No. M00138).
Subculture conditions: Adherent cells were grown to approximately 90% confluency, culture medium was aspirated and the cell layer was rinsed with PBS. […] Eight mL media was added, cells were spun down at 1000×g for 5 minutes. Cell pellet was re-suspended in 10 mL media and an appropriate volume was inoculated into a new culture flask.
Compound (drug) treatment: Cells were plated in a 6-well plate at a density of 250,000-300,000 cells/well in 3 mL media and incubated 37° C. in a humidified, 5% CO2 incubator. […] These solutions were added to the cells (3 uL/well), mixed by swirling the plate, and incubated at 37° C. in a humidified, 5% CO2 incubator for 2 hours.
Cell lysis and protein estimation: Cells were washed with PBS, and scraped in 50 μL of lysis buffer containing protease and phosphatase inhibitors. Cell lysates were stored at −20° C. Cell lysates were thawed and spun at 12,000 rpm for one minute, 3 ul of the supernatant was added to 500 μL of Coomassie blue reagent following by 500 μL of water. […] Protein standards were used (0-20 mg/mL) to calculate protein concentrations of test samples.
All samples were heated at 95° C. for 5 minutes, cooled to room temperature and spun down. […] After the run, gel was removed and protein transfer was done using iBlot for 7 minutes, as per manufacturer's recommendations. After the transfer, nitrocellulose membrane was incubated on a shaker in 5 mL of blocking buffer at room temperature for 1 hr. The blot was then incubated overnight on a shaker in 5 ml of blocking buffer containing 0.2% Tween-20 and primary antibody, at room temperature. Anti-phospho-STAT3 antibody was used at a dilution of 1:500, the other 3 primary antibodies were used at a dilution of 1:1000.
Next day, the blot was washed 3 times for 10 min each with 10 mL of TBST followed by incubation on a shaker in 5 ml of blocking buffer containing 0.2% Tween-20 and 0.5 ul of the IRDye labeled secondary antibodies, diluted 1:10000, at room temperature for 1 hr. The blot was then washed 3 times for 10 min each with 10 mL of TBST and dried between sheets of paper towels. Imaging was done using LICOR's Odyssey imaging system, quantitation was done using their software, Image Studio version 3.1.
(§1) Materials and Methods: A549 or A375 cells were seeded in 6-well plates at an appropriate seeding density on day 0. On day 2 or 3, after checking the health and confluency of cells, the media was aspirated and replaced with 1 mL media containing a predetermined concentration of compound and incubated for 2 hours. After 2 hours, the media was aspirated, and the cells washed 2 times with cold PBS. Cells were lysed on ice, with 50 uL 1×CST lysis buffer +1 mM PMSF for 5 minutes. After 5 minutes, cells were removed using a scraper and transferred to cold 1.5 mL tubes, and centrifuged for 10 min, 4° C., 14,000×g. Supernatant was gently removed and snap frozen in liquid nitrogen. Protein concentration of the lysate was determined using Bradford Reagent (analyzed using SpectraMax M2E) and diluted to 1 mg/mL or pERK or 1.5 mg/mL for pMEK analysis. […] All dilutions were in Milk-free antibody diluent.
They were grown in T75 flasks in DMEM containing 10% FBS and Pen-Strep. at 37° C. in a humidified, 5% CO2 incubator. The adherent cells were grown to about 90% confluency, culture medium was aspirated, and the cell layer was rinsed with PBS. […] Eight mL media was added, cells were spun down at 1000 g for 5 minutes. Cell pellet was re-suspended in 10 mL media and an appropriate volume was inoculated into a new culture flask. Cells were plated in a 6-well plate at a density of 250,000-300,000 cells/well in 3 mL media and incubated 37° C. in a humidified, 5% CO2 incubator.

[2] = PAMPA (pH 7.4); type: in vitro ADME; conditions: PAMPA; pH = 7.4 (Table 14)
Method: Each stock solution was diluted to 50 M in pH 7.4 Prisma HT buffer (pION) and 200 μl was added to each well of the donor plate in triplicate. The polyvinylidene fluoride (PVDF, 0.45 μm) filter membrane on the acceptor plate was coated with 5 μl gastrointestinal tract lipid formulation (GIT-0, pION) and to each well of the acceptor plate, 200 μl of acceptor sink buffer (pION) was added. The acceptor filter plate was then carefully placed on top of the donor plate to form a sandwich. The sandwich was incubated at 25° C. for 4 h without stirring. UV-vis spectra of the solutions in the blank, reference, acceptor and donor plates were measured using a microplate reader (Tecan Infinite 200PRO M Nano Plus). Permeability values were calculated using the PAMPA explorer software v.

[3] = test system: phospho-MEK in A549 cells; assay: Cell-based pMEK (pMEK:tMEK, CRAF bypass) in A549 cells; conditions: 2 h, pMEK to total MEK normalized to DMSO control
Method: as §1
(§2) A549 or […] cells were treated in duplicate for two hours with compounds at varying concentrations. After two hours, the cells were lysed, snap frozen, and stored at −80° C. After storage, the lysate was quantified with the Bradford assay. Before the lysates were prepared to run on the Jess, the lysates were diluted to 1 mg/mL for pERK analysis and 1.5 mg/mL pMEK analysis using quantitative Western blotting. ERK and MEK phosphorylation levels were estimated by taking the ratio of phospho-protein to total protein and normalizing to the DMSO control.
as §2

SMILES	A549-pERK (10 nM, 2 h) ([1]; 2 h)	A549-CRAF BP 100 nM, 2 h [3]	further results
CN(C)C(=O)Oc1cc2oc(=O)c(Cc3cccc(NS(=O)(=O)CC(F)(F)F)c3F)c(CN3CCNCC3)c2cc1Cl [Compound 247, 6-chloro-3-(2-fluoro-3-((2,2,2-trifluoroethyl)sulfonamido)benzyl)-2-oxo-4-(piperazin-1-ylmethyl)-2H-chromen-7-yl dimethylcarbamate]			activity at 0.01 µM [1]: 105%; Papp at 4 h, 50 μM [2]: 7 ×10⁻⁶ cm/s
CCS(=O)(=O)Nc1cccc(Cc2c(CN(C)C)c3ccc(OC(=O)N(C)C)cc3oc2=O)c1Cl [Compound 249, 3-(2-chloro-3-(ethylsulfonamido)benzyl)-4-((dimethylamino)methyl)-2-oxo-2H-chromen-7-yl dimethylcarbamate]			Papp at 4 h, 50 μM [2]: 64 ×10⁻⁶ cm/s
CNS(=O)(=O)Nc1nccc(Cc2c(CN(C)C)c3cc(F)c(OC(=O)N(C)C)cc3oc2=O)c1F [Compound 140]	65.0	70.3	
CCS(=O)(=O)Nc1nccc(Cc2c(CN(C)C)c3ccc(OC(=O)N(C)C)cc3oc2=O)c1F [Compound 148]	49.6	56.5	
CCS(=O)(=O)Nc1cccc(Cc2c(CN(C)CCF)c3ccc(OC(=O)N(C)C)cc3oc2=O)c1F [Compound 241]			activity at 0.01 µM [1]: 96.6%; Papp at 4 h, 50 μM [2]: 69 ×10⁻⁶ cm/s
CNS(=O)(=O)Nc1cccc(Cc2c(CNCC#N)c3ccc(OC(=O)N(C)C)cc3oc2=O)c1F [Compound 33]	55.4	51.4	
CN(C)Cc1c(Cc2cccc(NS(=O)(=O)CC(F)(F)F)c2F)c(=O)oc2cc(OC(=O)N(C)C)c(F)cc12 [Compound 236]			activity at 0.01 µM [1]: 94.1%; Papp at 4 h, 50 μM [2]: 52 ×10⁻⁶ cm/s
Cc1c(Cc2cccc(NS(=O)(=O)C(C)C)c2F)c(=O)oc2cc(OC(=O)N(C)C)ccc12 [Compound 115]	13.5	39.2 (mean, n = 2)	
CCS(=O)(=O)Nc1cccc(Cc2c(CN3CCNCC3)c3cc(Cl)c(OC(=O)N(C)C)cc3oc2=O)c1F [Compound 147]	21.7	46.4	pERK:tERK (10 nM 2 h A549) ([1]; Phospho-ERK Screen in A549 (KRAS G12S), head 10 nM 2 h, title 10 μM for 2 hours): 28 (n = 2)
CCN(CC)Cc1c(Cc2cccc(NS(=O)(=O)NC)c2F)c(=O)oc2cc(OC(=O)N(C)C)ccc12 [Compound 73]	77.7	33.9	
Cc1c(Cc2cccc(NS(=O)(=O)C3CCC3)c2F)c(=O)oc2cc(OC(=O)N(C)C)ccc12 [Compound 118]	21.1	39.1 (mean, n = 2)	
CCS(=O)(=O)Nc1cccc(Cc2c(CN(C)CC(F)F)c3ccc(OC(=O)N(C)C)cc3oc2=O)c1F [Compound 243]			activity at 0.01 µM [1]: 86.7%; Papp at 4 h, 50 μM [2]: 48 ×10⁻⁶ cm/s
C#CCNCCc1c(Cc2cccc(NS(=O)(=O)NC)c2F)c(=O)oc2cc(OC(=O)N(C)C)ccc12 [Compound 183]	32.4	65.9 (mean, n = 2)	A549-pERK 10 uM, 2 h ([1]; 10 uM, 2 h, phospho- to total protein ratio normalized to DMSO control): 0.82
CNS(=O)(=O)Nc1cccc(Cc2c(CN(C)CC#N)c3ccc(OC(=O)N(C)C)cc3oc2=O)c1F [Compound 87]	63.8	95.8	
CNS(=O)(=O)Nc1cccc(Cc2c(CNc3cncs3)c3ccc(OC(=O)N(C)C)cc3oc2=O)c1F [Compound 91]	74.6	84.2	
CNS(=O)(=O)Nc1cccc(Cc2c(C)c3cc(C)c(OC(=O)N(C)C)cc3oc2=O)c1F [Compound 108]	5.78	47.9 (mean, n = 2)	

SMILES	A549-pERK (10 nM, 2 h) ([1]; 2 h)	A549-CRAF BP 100 nM, 2 h [3]	further results
CCS(=O)(=O)Nc1cccc(Cc2c(CN3CCNCC3)c3ccc(OC(=O)N(C)C)cc3oc2=O)c1Cl [Compound 258, 3-(2-chloro-3-(ethylsulfonamido)benzyl)-2-oxo-4-(piperazin-1-ylmethyl)-2H-chromen-7-yl dimethylcarbamate]			Papp at 4 h, 50 μM [2]: 1 ×10⁻⁶ cm/s
CNS(=O)(=O)Nc1cccc(Cc2c(CN(C)C)c3c(C)cc(OC(=O)N(C)C)cc3oc2=O)c1F [Compound 253, 4-((dimethylamino)methyl)-3-(2-fluoro-3-((N-methylsulfamoyl)amino)benzyl)-5-methyl-2-oxo-2H-chromen-7-yl dimethylcarbamate]			Papp at 4 h, 50 μM [2]: 48 ×10⁻⁶ cm/s
Cc1c(Cc2ccnc(NS(=O)(=O)C(C)C)c2F)c(=O)oc2cc(OC(=O)N(C)C)ccc12 [Compound 114]	36.6	59.9 (mean, n = 3)	
Cc1c(Cc2cccc(NS(=O)(=O)C3CC3)c2F)c(=O)oc2cc(OC(=O)N(C)C)ccc12 [Compound 113]	24.7	48.0 (mean, n = 2)	
CNS(=O)(=O)Nc1cccc(Cc2c(CN(C)CC3CC3)c3ccc(OC(=O)N(C)C)cc3oc2=O)c1F [Compound 84]	83.2	87.3	
CNS(=O)(=O)Nc1cccc(Cc2c(CN(C)c3ccccc3)c3ccc(OC(=O)N(C)C)cc3oc2=O)c1F [Compound 79]	49.4	45.2 and 64.9	
CNS(=O)(=O)Nc1nccc(Cc2c(C)c3cc(C)c(OC(=O)N(C)C)cc3oc2=O)c1F [Compound 110]	5.92	56.6 (mean, n = 2)	
CNS(=O)(=O)Nc1cccc(Cc2c(CNc3ccsc3)c3ccc(OC(=O)N(C)C)cc3oc2=O)c1F [Compound 90]	72.4	71	
CNS(=O)(=O)Nc1cccc(Cc2c(CN(C)C)c3c(OC)cc(OC(=O)N(C)C)cc3oc2=O)c1F [Compound 252, 4-((dimethylamino)methyl)-3-(2-fluoro-3-((N-methylsulfamoyl)amino)benzyl)-5-methoxy-2-oxo-2H-chromen-7-yl dimethylcarbamate]			Papp at 4 h, 50 μM [2]: 15 ×10⁻⁶ cm/s
CNS(=O)(=O)Nc1cccc(Cc2c(CN(C)CC3CCC3)c3ccc(OC(=O)N(C)C)cc3oc2=O)c1F [Compound 88]	142	53.6	
CNS(=O)(=O)Nc1cccc(Cc2c(CN(C)c3ccc(Cl)cc3)c3ccc(OC(=O)N(C)C)cc3oc2=O)c1F [Compound 97]	56.5	52.1 (mean, n = 2)	
CCS(=O)(=O)Nc1nccc(Cc2c(C)c3ccc(OC(=O)N(C)C)cc3oc2=O)c1F [Compound 119]	64.8	66.1	
CNS(=O)(=O)Nc1cccc(Cc2c(CN(C)C)c3ccc(OC(=O)N4CCC4)cc3oc2=O)c1F [Compound 128]	66.3	37.7	
CCS(=O)(=O)Nc1cccc(Cc2c(CN(C)C)c3cc(Cl)c(OC(=O)N(C)C)cc3oc2=O)c1F [Compound 132]	62.6	57.8	
CN(C)C(=O)Oc1ccc2c(CN3CCNCC3)c(Cc3ccnc(NS(=O)(=O)C4CC4)c3F)c(=O)oc2c1 [Compound 150]	47.4	90.2	
